According to patent publication US9173882B2, “Polycyclic heteroaryl substituted triazoles useful as Axl inhibitors” (Rigel Pharmaceuticals, Inc., priority 2008, dated 2015):
pIC50: −log10 of the molar value.

Target: T1, Axl (Homo sapiens, UniProt P30530)
T1 construct: endogenous in cells; host or cells: HeLa cells
T1 sequence (P30530 26-894): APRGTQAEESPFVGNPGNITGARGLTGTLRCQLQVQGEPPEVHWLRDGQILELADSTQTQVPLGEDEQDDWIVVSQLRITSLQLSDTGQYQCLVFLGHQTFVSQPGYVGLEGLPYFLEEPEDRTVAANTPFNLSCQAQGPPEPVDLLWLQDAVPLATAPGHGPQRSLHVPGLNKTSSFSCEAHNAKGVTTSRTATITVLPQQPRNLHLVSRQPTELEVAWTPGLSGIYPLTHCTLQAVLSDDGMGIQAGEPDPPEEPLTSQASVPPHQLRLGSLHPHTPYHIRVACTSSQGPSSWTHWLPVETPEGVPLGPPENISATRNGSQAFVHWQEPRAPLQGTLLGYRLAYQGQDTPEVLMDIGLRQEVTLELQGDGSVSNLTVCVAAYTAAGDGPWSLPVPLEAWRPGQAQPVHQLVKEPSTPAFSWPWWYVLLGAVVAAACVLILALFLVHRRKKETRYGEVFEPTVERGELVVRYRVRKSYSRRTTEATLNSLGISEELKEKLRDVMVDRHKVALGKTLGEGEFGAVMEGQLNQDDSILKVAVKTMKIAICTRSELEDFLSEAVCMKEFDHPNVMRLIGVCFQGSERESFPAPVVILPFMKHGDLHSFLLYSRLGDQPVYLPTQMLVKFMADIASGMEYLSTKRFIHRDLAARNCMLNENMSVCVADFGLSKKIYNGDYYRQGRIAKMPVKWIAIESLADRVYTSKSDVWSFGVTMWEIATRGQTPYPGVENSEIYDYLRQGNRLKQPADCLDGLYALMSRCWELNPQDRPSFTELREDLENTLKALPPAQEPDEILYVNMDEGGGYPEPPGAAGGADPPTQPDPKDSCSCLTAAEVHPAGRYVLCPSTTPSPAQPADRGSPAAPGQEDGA
Assay: Phospho-Akt in-cell Western assay
Assay type: cell-based
Conditions: Hela cells, stimulated by Axl-antibody cross-linking, phospho-Akt chemiluminescence
Method: Phospho-Akt in-Cell Western Assay
The compounds of the invention were tested in the following assay for their ability to inhibit Axl activity.
• Cell culture plate: 96 well assay plate (Corning 3610), white, clear bottom, tissue-culture treated. • Cells: Hela cells. • Starvation medium: For Axl stimulation: 0.5% FCS (fetal calf serum) in DMEM, plus Axl/Fc (extracellular domain of AXL fused to imunoglobulin Fc region) (R&D, 154-AL) 500 ng/mL. • For EGF (epidermal growth factor) stimulation: 0.5% FCS in DMEM (Dulbecco's modified Eagles medium). • Poly-L-Lysine 0.01% solution (the working solution): 10 μg/ml, dilute In PBS (phosphate buffered saline). • Axl antibody cross-linking: • 1st: Mouse anti-Axl (R&D, MAB154). • 2nd: Biotin-SP-conjugated AffiniPure goat anti-mouse IgG (H+L) (Jackson ImmunoResearch #115-065-003). • Fixing buffer: 4% formaldehyde in PBS. • Wash buffer: 0.1% TritonX-100 in PBS. • Quenching buffer: 3% H2O2, 0.1% Azide in wash buffer, Azide and hydrogen peroxide (H2O2) are added fresh. • Blocking buffer: 5% BSA in TBST (tris buffered saline plus 0.1% Tween 20). • Primary antibody: Rabbit anti-human Phospho-Akt antibody (Cell Signaling 9271): 1×250 diluted in blocking buffer. • Secondary antibody: HRP (horse radish peroxidase)-conjugated Goat anti-Rabbit secondary, stock solution: Jackson ImmunoResearch (Goat anti-Rabbit HRP, #111-035-144) 1:1 diluted in glycerol, store at −20° C. The working solution: 1×2000 dilution of stock in blocking buffer. • Chemiluminescent working solution (Pierce, 37030): SuperSignal ELISA (enzyme linked immunosorbant assay) Pico Chemiluminescent substrate. • Crystal Violet solution: Stock: 2.5% Crystal violet in methanol, filtered and kept at ambient temperature. The working solution: dilute the stock 1:20 with PBS immediately before use. • 10% SDS: working solution: 5% SDS (sodium dodecylsulfate), diluted in PBS Methods: Day 1:
A 96 well TC (tissue culture treated) plate was coated with 10 μg/mL poly-L-Lysine at 37° C. for 30 min, washed twice with PBS, and air-dried for 5 minutes before cells were added. Hela cells were seeded at 10,000 cells/well and the cells were starved in 100 μL starvation medium containing Axl/Fc for 24 hrs.
The cells were pre-treated with test compounds by adding 100 μL of 2× test compound to the starvation medium on the cells. The cells were incubated at 37° C. for 1 hr before stimulation.
The cells were stimulated by Axl-antibody cross-linking as follows: A 5× 1st/2nd Axl antibody mixture was made (37.5 μg/mL 1st/100 μg/mL 2nd) in starvation medium and nutated at 4° C. with thorough mixing for 1-2 hours for clustering. The resulting mix was warmed to 37° C. 50 μL of 5× Axl 1st/2nd of antibody cluster was added to the cells and the cells were incubated at 37° C. for 5 min.
After 5 minutes stimulation, the plate was flicked to remove medium and the plate was tapped onto paper towels. Formaldehyde (4.0% in PBS, 100 μL) was added to fix the cells and the cells were incubated at ambient temperature for 20 min without shaking.
The cells were washed with a plate washer buffer to remove the formaldehyde solution. The plate was flicked to removed excess wash buffer and tapped onto paper towels. Quenching buffer (100 μL) was added to each well and the cells were incubated at ambient temperature for 20 minutes without shaking.
The cells were washed with a plate washer buffer to remove the quenching buffer. Blocking buffer (100 μL) was added and the cells were incubated at ambient temperature for at least an hour with gentle shaking.
The cells were washed with a plate washer buffer and diluted primary antibody (50 μL) was added to each well (blocking buffer was added to the negative control wells instead). The plates were incubated overnight at 4° C. with gentle shaking.
The wash buffer was removed, diluted secondary antibody (100 μL) was added, and the cells were incubated at ambient temperature for 1 hour with gentle shaking. […]

Row | SMILES | pIC50 (Table 1, formula (Ia)) | pIC50 (Table 2, formula (Ib))
1 | Nc1nc(Nc2ccc3c(c2)CC[C@@H](NCc2ccccc2C(=O)O)CC3)nn1-c1cc2c(nn1)-c1ccccc1CCC2 [Compound 29, 1-(6,7-dihydro-5H-benzo[6,7]cyclohepta[1,2-c]pyridazin-3-yl)-N^3-((7S)-7-((2-carboxyphenyl)methyl)amino-6,7,8,9-tetrahydro-5H-benzo[7]annulene-2-yl)-1H-1,2,4-triazole-3,5-diamine] | 5.00 to 6.00 | –
2 | Nc1nc(Nc2cccc3c2CCC(N2CCCC2)CC3)nn1-c1cc2c(nn1)-c1ccccc1CCC2 (stereo not drawn) [Compound 11, 1-(6,7-dihydro-5H-benzo[6,7]cyclohepta[1,2-c]pyridazin-3-yl)-N^3-(7-(pyrrolidin-1-yl)-6,7,8,9-tetrahydro-5H-benzo[7]annulene-1-yl)-1H-1,2,4-triazole-3,5-diamine] | < 4.70 | –
3 | CC(N[C@H]1CCc2ccc(Nc3nc(N)n(-c4cc5c(nn4)-c4ccccc4CCC5)n3)cc2CC1)C(C)(C)C (stereo partly drawn) [Compound 25, 1-(6,7-dihydro-5H-benzo[6,7]cyclohepta[1,2-c]pyridazin-3-yl)-N^3-((7S)-7-((3,3-dimethylbut-2-yl)amino)-6,7,8,9-tetrahydro-5H-benzo[7]annulene-2-yl)-1H-1,2,4-triazole-3,5-diamine] | 5.00 to 6.00 | –
4 | CN(CC(=O)O)C1CCc2ccc(Nc3nc(N)n(-c4cc5c(nn4)-c4ccccc4CCC5)n3)cc2CC1 (stereo not drawn) [Compound 8, 1-(6,7-dihydro-5H-benzo[6,7]cyclohepta[1,2-c]pyridazin-3-yl)-N^3-(7-((carboxymethyl)(methyl)amino)-6,7,8,9-tetrahydro-5H-benzo[7]annulene-2-yl)-1H-1,2,4-triazole-3,5-diamine] | 5.00 to 6.00 | –
5 | CC(C)CCN(CCC(C)C)[C@H]1CCc2ccc(Nc3nc(N)n(-c4cc5c(nn4)-c4ccccc4CCC5)n3)cc2CC1 [Compound 40, 1-(6,7-dihydro-5H-benzo[6,7]cyclohepta[1,2-c]pyridazin-3-yl)-N^3-((7S)-7-(di(3-methylbutyl)amino)-6,7,8,9-tetrahydro-5H-benzo[7]annulene-2-yl)-1H-1,2,4-triazole-3,5-diamine] | 5.00 to 6.00 | –
6 | Nc1nc(Nc2ccc3c(c2)CC[C@@H](N(CC2CCCC2)CC2CCCC2)CC3)nn1-c1cc2c(nn1)-c1ccccc1CCC2 [Compound 35, 1-(6,7-dihydro-5H-benzo[6,7]cyclohepta[1,2-c]pyridazin-3-yl)-N^3-((7S)-7-(di(cyclopentylmethyl)amino)-6,7,8,9-tetrahydro-5H-benzo[7]annulene-2-yl)-1H-1,2,4-triazole-3,5-diamine] | 5.00 to 6.00 | –
7 | CC(C)(C)OC(=O)N[C@H]1CCc2ccc(Nc3nc(N)nn3-c3cc4c(nn3)-c3ccccc3CCC4)cc2CC1 [Compound 14, 1-(6,7-dihydro-5H-benzo[6,7]cyclohepta[1,2-c]pyridazin-3-yl)-N^5-((7S)-7-(t-butoxycarbonylamino)-6,7,8,9-tetrahydro-5H-benzo[7]annulene-2-yl)-1H-1,2,4-triazole-3,5-diamine] | – | < 4.70

More lines, main results first:

Row | pIC50 (Table 1, formula (Ia)) | SMILES | pIC50 (Table 2, formula (Ib))
8 | > 6.00 | CCCN(CCC)[C@H]1CCc2ccc(Nc3nc(N)n(-c4cc5c(nn4)-c4cccnc4CCC5)n3)cc2CC1 [Compound 49, 1-(6,7-dihydro-5H-pyrido[2′,3′:6,7]cyclohepta[1,2-c]pyridazin-3-yl)-N^3-((7S)-7-(dipropylamino)-6,7,8,9-tetrahydro-5H-benzo[7]annulene-2-yl)-1H-1,2,4-triazole-3,5-diamine] | –
9 | > 6.00 | CC(C)CCN[C@H]1CCc2ccc(Nc3nc(N)n(-c4cc5c(nn4)-c4ccccc4CCC5)n3)cc2CC1 [Compound 39, 1-(6,7-dihydro-5H-benzo[6,7]cyclohepta[1,2-c]pyridazin-3-yl)-N^3-((7S)-7-(3-methylbutylamino)-6,7,8,9-tetrahydro-5H-benzo[7]annulene-2-yl)-1H-1,2,4-triazole-3,5-diamine] | –
10 | > 6.00 | Nc1nc(Nc2ccc3c(c2)CCC(N2CCC[C@@H]2C(=O)O)CC3)nn1-c1cc2c(nn1)-c1ccccc1CCC2 (stereo partly drawn) [Compound 5, 1-(6,7-dihydro-5H-benzo[6,7]cyclohepta[1,2-c]pyridazin-3-yl)-N^3-(7-((2R)-2-(carboxy)pyrrolidin-1-yl)-6,7,8,9-tetrahydro-5H-benzo[7]annulene-2-yl)-1H-1,2,4-triazole-3,5-diamine] | –
11 | > 6.00 | Nc1nc(Nc2ccc3c(c2)CC[C@@H](N)CC3)nn1-c1cc2c(nn1)-c1cccnc1CCC2 [Compound 46, 1-(6,7-dihydro-5H-pyrido[2′,3′:6,7]cyclohepta[1,2-c]pyridazin-3-yl)-N^3-((7S)-7-amino-6,7,8,9-tetrahydro-5H-benzo[7]annulene-2-yl)-1H-1,2,4-triazole-3,5-diamine] | –
12 | > 6.00 | CCOC(=O)CN1CCN(C2CCc3ccc(Nc4nc(N)n(-c5cc6c(nn5)-c5ccccc5CCC6)n4)cc3CC2)CC1 (stereo not drawn) [Compound 9, 1-(6,7-dihydro-5H-benzo[6,7]cyclohepta[1,2-c]pyridazin-3-yl)-N^3-(7-(4-(ethoxycarbonylmethyl)piperazin-1-yl)-6,7,8,9-tetrahydro-5H-benzo[7]annulene-2-yl)-1H-1,2,4-triazole-3,5-diamine] | –
13 | > 6.00 | CC(C)CN[C@H]1CCc2ccc(Nc3nc(N)n(-c4cc5c(nn4)-c4ccccc4CCC5)n3)cc2CC1 [Compound 17, 1-(6,7-dihydro-5H-benzo[6,7]cyclohepta[1,2-c]pyridazin-3-yl)-N^3-((7S)-7-((2-methylpropyl)amino)-6,7,8,9-tetrahydro-5H-benzo[7]annulene-2-yl)-1H-1,2,4-triazole-3,5-diamine] | –
14 | > 6.00 | Nc1nc(Nc2ccc3c(c2)CC[C@@H](NC2CCCC2)CC3)nn1-c1cc2c(nn1)-c1ccccc1CCC2 [Compound 22, 1-(6,7-dihydro-5H-benzo[6,7]cyclohepta[1,2-c]pyridazin-3-yl)-N^3-((7S)-7-(cyclopentylamino)-6,7,8,9-tetrahydro-5H-benzo[7]annulene-2-yl)-1H-1,2,4-triazole-3,5-diamine] | –
15 | > 6.00 | Nc1nc(Nc2ccc3c(c2)CC[C@@H](NC2CCCCC2)CC3)nn1-c1cc2c(nn1)-c1ccccc1CCC2 [Compound 21, 1-(6,7-dihydro-5H-benzo[6,7]cyclohepta[1,2-c]pyridazin-3-yl)-N^3-((7S)-7-(cyclohexylamino)-6,7,8,9-tetrahydro-5H-benzo[7]annulene-2-yl)-1H-1,2,4-triazole-3,5-diamine] | –
